Values quoted from earlier work as cited in PMC2409936, “Phase I and pharmacokinetic study of XR11576, an oral topoisomerase I and II inhibitor, administered on days 1–5 of a 3-weekly cycle in patients with advanced solid tumours” (British Journal of Cancer, 2004).

Tested on: patients
Conditions: oral administration; ref Soepenberg et al, 2002; Natelson et al, 1996; Verschraegen et al, 1998; Creemers et al, 1997; Gerrits et al; Mani et al; De Jonge et al, 1999; cited from earlier work

Structure (SMILES) | diarrhoea, share of administered cycles
CC[C@@]1(O)C(=O)OCc2c1cc1n(c2=O)Cc2cc3c([N+](=O)[O-])cccc3nc2-1 [9-nitrocamptothecin] | 24–54%
CC[C@@]1(O)C(=O)OCc2c1cc1n(c2=O)Cc2cc3ccccc3nc2-1 [20-S-camptothecin] | 24–54%
CC[C@@]1(O)C(=O)OCc2c1cc1n(c2=O)Cc2cc3c(N)cccc3nc2-1 [9-AC] | 24–54%
CC[C@@]1(O)C(=O)OCc2c1cc1n(c2=O)Cc2cc3c(CN(C)C)c(O)ccc3nc2-1 [topotecan] | 24–54%
CCc1c2c(nc3ccc(OC(=O)N4CCC(N5CCCCC5)CC4)cc13)-c1cc3c(c(=O)n1C2)COC(=O)[C@]3(O)CC [irinotecan] | 24–54%

Same assay, conditions: prolonged oral administration (21 days), not controlled with loperamide; ref Creemers et al, 1997; cited from earlier work

Structure (SMILES) | severe diarrhoea [%]
CC[C@@]1(O)C(=O)OCc2c1cc1n(c2=O)Cc2cc3c(CN(C)C)c(O)ccc3nc2-1 [topotecan] | 22
